Data from US20200281194A1, “A Novel Green Micro-Emulsion for Controlling Fungal Wilt Diseases” (priority 2017, published 2020).

Test system: FoL (Fusarium wilt of tomato)
Test: Wilt incidence pot study in tomato (AUDPC)
Assay type: in vivo, Fusarium oxysporum
Conditions: @ 0.1%
Procedure: For wilt incidence study, seeds, seedlings and soil are treated with above mentioned three concentrations of microemulsion formulation. In brief, soil is autoclaved and artificially inoculated with Fusarium spores (@ 2.6×10^5 spores/g soil). Seeds are treated with microemulsion formulations by the method used for germination study, but herein, seeds are sowed directly into 1 kg diseased pot. For seedling treatment, healthy eight-leaf staged seedlings of tomato are treated with three respective concentrations of microemulsion while in case of soil treatment; soil of pot is treated @ 5 ml per 150 cc soil. Healthy and untreated seedlings are taken as control. Each treatment has 5 replicates and all the pots are kept in the net house in Micro model, IITD for 45 days. Carbendazim (@0.1%) is taken as chemical control. For accessing the disease progression in the tomato plant, following grading system is used. Symptoms like yellowing of leaves, wilting of plant, height and weight of plant are examined and given a grade by comparing with the control having maximum diseases infection.
Area under the disease progress curve (AUDPC) is a method to calculate the percentage inhibition of wilt disease and is calculated as:
AUDPC=Σ[(Ri+1+Ri)/2][ti+1−ti], R=disease rating at the ith observation ti=time (days) since previous ratings at the ith observation, n=total number of observations.

COC(=O)Nc1nc2ccccc2[nH]1 [carbendazim, Carbendazim]
Disease reduction % of FoL (Seedling treatment): 60.02%
Disease reduction % of FoL (Soil treatment): 71.24%
